According to PubChem BioAssay AID248 (DTP/NCI, 2004):
Values joined by “and” are separate entries in the source; they are usually repeats but may differ in a detail not shown here. Identical values can stand only once. Toxic doses and inconclusive results are not listed.

Test system: L1210 leukemia ip in BDF1 mice, survival T/C
Assay: NCI In Vivo Anticancer Drug Screen. Data for tumor model L1210 Leukemia (intraperitoneal) in B6D2F1 (BDF1) mice
Details: higher = longer survival
Outline: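 Mice bearing the transplanted tumor received compound or vehicle. Survival of the treated group was divided by that of the vehicle-treated control group to give the ratio.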

Nc1nc(=S)c2ncn(C3CC(O)C(CO)O3)c2[nH]1 (centres undefined)
T/C (endpoint: mean survival time, dose: 0.15 mg/kg/injection, schedule: Q01DX015 (ip), vehicle: carboxymethylcellulose (CMC)): 121 % of control | T/C (endpoint: mean survival time, dose: 0.31 mg/kg/injection, schedule: Q01DX009 (ip), vehicle: saline): 119 % of control | T/C (endpoint: mean survival time, dose: 0.32 mg/kg/injection, schedule: Q01DX015 (ip), vehicle: carboxymethylcellulose (CMC)): 124 % of control | T/C (endpoint: mean survival time, dose: 0.62 mg/kg/injection, schedule: Q01DX005 (ip), vehicle: clinical formulation): 153 % of control | T/C (endpoint: mean survival time, dose: 0.62 mg/kg/injection, schedule: Q01DX009 (ip), vehicle: saline): 150 % of control | T/C (endpoint: mean survival time, dose: 0.62 mg/kg/injection, schedule: Q01DX015 (ip), vehicle: carboxymethylcellulose (CMC)): 151 % of control | T/C (endpoint: mean survival time, dose: 0.63 mg/kg/injection, schedule: Q03HX008 (ip), vehicle: saline): 162 % of control | T/C (endpoint: mean survival time, dose: 0.63 mg/kg/injection, schedule: Q03HX024 (ip), vehicle: saline): 167 % of control | T/C (endpoint: mean survival time, dose: 0.9 mg/kg/injection, schedule: Q01DX009 (ip), vehicle: saline with Tween-80): 150 % of control | T/C (endpoint: mean survival time, dose: 1.25 mg/kg/injection, schedule: Q01DX005 (ip), vehicle: clinical formulation): 150 % of control and 171 % of control | T/C (endpoint: mean survival time, dose: 1.25 mg/kg/injection, schedule: Q01DX005 (ip), vehicle: saline): 154 % of control | T/C (endpoint: mean survival time, dose: 1.25 mg/kg/injection, schedule: Q01DX005 (ip), vehicle: water): 163 % of control | T/C (endpoint: mean survival time, dose: 1.25 mg/kg/injection, schedule: Q01DX009 (ip), vehicle: saline): 156 % of control | T/C (endpoint: mean survival time, dose: 1.25 mg/kg/injection, schedule: Q01DX015 (ip), vehicle: carboxymethylcellulose (CMC)): 180 % of control and 218 % of control | T/C (endpoint: mean survival time, dose: 1.25 mg/kg/injection, schedule: Q03HX008 (ip), vehicle: saline): 155 % of control | T/C (endpoint: mean survival time, dose: 1.25 mg/kg/injection, schedule: Q03HX016 (ip), vehicle: saline): 163 % of control | T/C (endpoint: mean survival time, dose: 1.25 mg/kg/injection, schedule: Q03HX024 (ip), vehicle: saline): 157 % of control | T/C (endpoint: mean survival time, dose: 1.56 mg/kg/injection, schedule: Q01DX009 (ip), vehicle: saline): 161 % of control and 173 % of control | T/C (endpoint: mean survival time, dose: 1.87 mg/kg/injection, schedule: Q01DX015 (ip), vehicle: carboxymethylcellulose (CMC)): 113 % of control | T/C (endpoint: mean survival time, dose: 2.5 mg/kg/injection, schedule: Q01DX001 (ip), vehicle: saline): 120 % of control | T/C (endpoint: mean survival time, dose: 2.5 mg/kg/injection, schedule: Q01DX002 (ip), vehicle: Klucel (hydroxypropylcellulose) (HPC)): 177 % of control | T/C (endpoint: mean survival time, dose: 2.5 mg/kg/injection, schedule: Q01DX005 (ip), vehicle: clinical formulation): 173 % of control and 178 % of control | T/C (endpoint: mean survival time, dose: 2.5 mg/kg/injection, schedule: Q01DX005 (ip), vehicle: saline): 171 % of control | T/C (endpoint: mean survival time, dose: 2.5 mg/kg/injection, schedule: Q01DX005 (ip), vehicle: water): 173 % of control | T/C (endpoint: mean survival time, dose: 2.5 mg/kg/injection, schedule: Q01DX009 (ip), vehicle: saline): 161 % of control | T/C (endpoint: mean survival time, dose: 2.5 mg/kg/injection, schedule: Q01DX015 (ip), vehicle: carboxymethylcellulose (CMC)): 155 % of control and 187 % of control | T/C (endpoint: mean survival time, dose: 2.5 mg/kg/injection, schedule: Q03HX008 (ip), vehicle: saline): 156 % of control | T/C (endpoint: mean survival time, dose: 2.5 mg/kg/injection, schedule: Q03HX016 (ip), vehicle: saline): 167 % of control | T/C (endpoint: mean survival time, dose: 2.5 mg/kg/injection, schedule: Q04DX003 (ip), vehicle: saline): 155 % of control | T/C (endpoint: mean survival time, dose: 2.5 mg/kg/injection, schedule: Q08DX002 (ip), vehicle: saline): 124 % of control | T/C (endpoint: mean survival time, dose: 3.12 mg/kg/injection, schedule: Q01DX009 (ip), vehicle: saline): 191 % of control and 206 % of control | T/C (endpoint: mean survival time, dose: 4.5 mg/kg/injection, schedule: Q01DX009 (ip), vehicle: saline with Tween-80): 208 % of control | T/C (endpoint: mean survival time, dose: 5.0 mg/kg/injection, schedule: Q01DX005 (ip), vehicle: clinical formulation): 166 % of control and 202 % of control | T/C (endpoint: mean survival time, dose: 5.0 mg/kg/injection, schedule: Q01DX005 (ip), vehicle: saline): 158 % of control | T/C (endpoint: mean survival time, dose: 5.0 mg/kg/injection, schedule: Q01DX005 (ip), vehicle: water): 192 % of control | T/C (endpoint: mean survival time, dose: 5.0 mg/kg/injection, schedule: Q01DX009 (ip), vehicle: saline): 156 % of control | T/C (endpoint: mean survival time, dose: 5.0 mg/kg/injection, schedule: Q01DX015 (ip), vehicle: carboxymethylcellulose (CMC)): 166 % of control | T/C (endpoint: mean survival time, dose: 5.0 mg/kg/injection, schedule: Q03HX024 (ip), vehicle: saline): 97 % of control | T/C (endpoint: mean survival time, dose: 5.0 mg/kg/injection, schedule: Q04DX003 (ip), vehicle: saline): 152 % of control | T/C (endpoint: mean survival time, dose: 6.0 mg/kg/injection, schedule: Q01DX005 (oral), vehicle: saline): 108 % of control | T/C (endpoint: mean survival time, dose: 6.25 mg/kg/injection, schedule: Q01DX009 (ip), vehicle: saline): 153 % of control | T/C (endpoint: mean survival time, dose: 7.0 mg/kg/injection, schedule: Q01DX015 (ip), vehicle: carboxymethylcellulose (CMC)): 150 % of control | T/C (endpoint: mean survival time, dose: 7.5 mg/kg/injection, schedule: Q01DX015 (ip), vehicle: carboxymethylcellulose (CMC)): 151 % of control | T/C (endpoint: mean survival time, dose: 10.0 mg/kg/injection, schedule: Q01DX005 (ip), vehicle: clinical formulation): 154 % of control and 198 % of control | T/C (endpoint: mean survival time, dose: 10.0 mg/kg/injection, schedule: Q01DX005 (ip), vehicle: saline): 219 % of control | T/C (endpoint: mean survival time, dose: 10.0 mg/kg/injection, schedule: Q01DX005 (ip), vehicle: water): 156 % of control | T/C (endpoint: mean survival time, dose: 10.0 mg/kg/injection, schedule: Q01DX009 (ip), vehicle: saline): 95 % of control | T/C (endpoint: mean survival time, dose: 10.0 mg/kg/injection, schedule: Q01DX015 (ip), vehicle: carboxymethylcellulose (CMC)): 114 % of control | T/C (endpoint: mean survival time, dose: 10.0 mg/kg/injection, schedule: Q03HX008 (ip), vehicle: saline): 86 % of control | T/C (endpoint: mean survival time, dose: 10.0 mg/kg/injection, schedule: Q04DX003 (ip), vehicle: Klucel (hydroxypropylcellulose) (HPC)): 156 % of control | T/C (endpoint: mean survival time, dose: 10.0 mg/kg/injection, schedule: Q04DX003 (ip), vehicle: saline): 170 % of control | T/C (endpoint: mean survival time, dose: 10.0 mg/kg/injection, schedule: Q08DX002 (ip), vehicle: saline): 154 % of control | T/C (endpoint: mean survival time, dose: 12.0 mg/kg/injection, schedule: Q01DX005 (oral), vehicle: saline): 116 % of control | T/C (endpoint: mean survival time, dose: 15.0 mg/kg/injection, schedule: Q01DX015 (ip), vehicle: carboxymethylcellulose (CMC)): 106 % of control and 155 % of control and 236 % of control | T/C (endpoint: mean survival time, dose: 20.0 mg/kg/injection, schedule: Q01DX002 (ip), vehicle: Klucel (hydroxypropylcellulose) (HPC)): 115 % of control | T/C (endpoint: mean survival time, dose: 20.0 mg/kg/injection, schedule: Q01DX005 (ip), vehicle: saline): 97 % of control | T/C (endpoint: mean survival time, dose: 20.0 mg/kg/injection, schedule: Q04DX003 (ip), vehicle: saline): 190 % of control | T/C (endpoint: mean survival time, dose: 20.0 mg/kg/injection, schedule: Q08DX002 (ip), vehicle: saline): 157 % of control | T/C (endpoint: mean survival time, dose: 25.0 mg/kg/injection, schedule: Q01DX009 (ip), vehicle: saline): 94 % of control | T/C (endpoint: mean survival time, dose: 40.0 mg/kg/injection, schedule: Q04DX003 (ip), vehicle: Klucel (hydroxypropylcellulose) (HPC)): 150 % of control | T/C (endpoint: mean survival time, dose: 40.0 mg/kg/injection, schedule: Q08DX002 (ip), vehicle: saline): 168 % of control | T/C (endpoint: mean survival time, dose: 50.0 mg/kg/injection, schedule: Q01DX005 (ip), vehicle: saline): 90 % of control | T/C (endpoint: mean survival time, dose: 50.0 mg/kg/injection, schedule: Q01DX009 (ip), vehicle: saline): 86 % of control | T/C (endpoint: mean survival time, dose: 60.0 mg/kg/injection, schedule: Q04DX003 (oral), vehicle: saline): 120 % of control | T/C (endpoint: mean survival time, dose: 80.0 mg/kg/injection, schedule: Q08DX002 (ip), vehicle: saline): 153 % of control | T/C (endpoint: mean survival time, dose: 96.0 mg/kg/injection, schedule: Q01DX005 (oral), vehicle: saline): 91 % of control | T/C (endpoint: mean survival time, dose: 100.0 mg/kg/injection, schedule: Q01DX005 (ip), vehicle: saline): 155 % of control | T/C (endpoint: mean survival time, dose: 120.0 mg/kg/injection, schedule: Q04DX003 (oral), vehicle: saline): 113 % of control | T/C (endpoint: mean survival time, dose: 125.0 mg/kg/injection, schedule: Q01DX015 (ip), vehicle: carboxymethylcellulose (CMC)): 114 % of control | T/C (endpoint: mean survival time, dose: 145.0 mg/kg/injection, schedule: Q01DX001 (ip), vehicle: saline with Tween-80): 160 % of control | T/C (endpoint: mean survival time, dose: 240.0 mg/kg/injection, schedule: Q04DX003 (oral), vehicle: saline): 119 % of control | T/C (endpoint: mean survival time, dose: 250.0 mg/kg/injection, schedule: Q01DX015 (ip), vehicle: carboxymethylcellulose (CMC)): 96 % of control | T/C (endpoint: mean survival time, dose: 480.0 mg/kg/injection, schedule: Q04DX003 (oral), vehicle: saline): 96 % of control | T/C (endpoint: mean survival time, dose: 960.0 mg/kg/injection, schedule: Q08DX002 (oral), vehicle: saline): 100 % of control | T/C (endpoint: median survival time, dose: 0.06 mg/kg/injection, schedule: Q03HX024 (ip), vehicle: saline): 112 % of control | T/C (endpoint: median survival time, dose: 0.07 mg/kg/injection, schedule: Q03HX024 (ip), vehicle: saline): 112 % of control | T/C (endpoint: median survival time, dose: 0.12 mg/kg/injection, schedule: Q03HX024 (ip), vehicle: saline): 121 % of control | T/C (endpoint: median survival time, dose: 0.13 mg/kg/injection, schedule: Q03HX024 (ip), vehicle: saline): 121 % of control | T/C (endpoint: median survival time, dose: 0.5 mg/kg/injection, schedule: Q03HX024 (ip), vehicle: saline): 101 % of control | T/C (endpoint: median survival time, dose: 1.0 mg/kg/injection, schedule: Q03HX024 (ip), vehicle: saline): 104 % of control | T/C (endpoint: median survival time, dose: 32.0 mg/kg/injection, schedule: Q03HX024 (ip), vehicle: saline): 153 % of control

O=C(N1CCN=C1C(Cl)(Cl)Cl)C(Cl)(Cl)Cl
T/C (endpoint: mean survival time, dose: 100.0 mg/kg/injection, schedule: Q04DX003 (ip), vehicle: saline with Tween-80): 100 % of control | T/C (endpoint: mean survival time, dose: 200.0 mg/kg/injection, schedule: Q04DX003 (ip), vehicle: saline with Tween-80): 102 % of control | T/C (endpoint: mean survival time, dose: 400.0 mg/kg/injection, schedule: Q04DX003 (ip), vehicle: saline with Tween-80): 102 % of control
